According to patent publication US20240216336A1, “CLOTRIMAZOLE AS A TREATMENT FOR IMMUNODEFICIENCY DISORDERS” (Northwestern University, priority 2020, published 2024):

Experiments:
[1] = target: GAPDH (Mus musculus, UniProt P16858); assay: GAPDH activity normalized to total protein in BMDMs; type: cell-based; design: endogenous in cells; conditions: LPS (200 ng/ml) + 1400W (50 μM)
Method: BMDMs were isolated from ΔE1HK1 and WT mice as previously reported (Rodriguez et al., 2019). Briefly, bone marrow was isolated from the tibia and femur of 8-10-week-old mice by puncturing one end of the femur and tibia with a 27g needle and placing it in a 0.5 ml tube with a hole punched in the bottom. The 0.5 ml tube containing the bone was then placed in a 1.75 ml tube and centrifuged at 5,000×g for 3.5 minutes. Bone marrow was then collected into the 1.75 ml tube and resuspend in 1 ml of RBC lysis buffer (abcam) for 1 minute and then transferred to a 50 ml tube with 4 ml RBC lysis buffer and incubated for 4 minutes. Next, 35 ml of PBS was added and centrifuged at 300×g for 5 min and supernatant was then decanted and cell pellet was re-suspended in complete RPMI with 20 ng/ml mCSF (Preprotech). Cells were counted using a hemocytometer and plated in 10 cm tissue culture plates at a density of 3-million cells/plate. Cells were cultured with 20 ng/mL mCSF to induce differentiation into BMDMs. […]
(§1) The following kits were used according to the manufacturer's instructions: Promega NADP/NADPH quantification kit (G9081) and […] (G9071); Glyceraldehyde-3-Phosphate Dehydrogenase Activity Assay kit (abcam); ELISAs for IL-1β (DY401), IL-6 […].

[2] = test system: GAPDH; assay: GAPDH activity normalized to total protein in PMs from NC and HFD mice; type: cell-based, mouse; conditions: LPS (300 ng/ml) + 1400W (50 μM) for 4 hrs
Method: Peritoneal macrophages were isolated from 8-10-week-old ΔE1HK1 and littermate control WT mice by peritoneal lavage as described previously (Ray and Dittel, 2010). Briefly, mice were euthanized and the peritoneal cavity was injected with PBS supplemented with 5% FBS using a 27g needle. The abdominal wall was gently agitated to dislodge peritoneal cells. Using a fresh 25g needle, the peritoneal lavage (PBS and peritoneal cells) was aspirated and collected. Cells were then centrifuged at 500 g for 10 min and re-suspended in 1 mL of complete RPMI (Corning) supplemented with 10% FBS (Atlanta Biologicals), 2 mM glutamine (HyClone), 1 mM HEPES (Corning) and 1 mM pyruvate (Corning). Stimulation with LPS (Invivogen) was performed the next day. 300 ng/ml of LPS was given to the cells for 4-6 hrs with or without the following drugs; OT (50 μM), 6-AN (1 mM), 1400W (50 μM), or CGP3466 (50 nM).
as §1

[3] = test system: BMDMs; assay: Seahorse ECAR trace of BMDMs; type: cell-based, mouse; conditions: 5 hrs LPS (200 ng/ml) ±1400W (50 μM)
Method: The day before the assay, the Seahorse cartridge was placed in the XF calibrant and incubated overnight at 37° C. On the day of the assay, cells were seeded into the Seahorse 96-well plate at 15,000 cells/80 μl per well for HepG2 cells or 100,000 cells/80 μl per well for BMDMs. The plates were incubated at RT for 1 hour in glucose free complete DMEM or RPMI without bicarbonate or phenol-red to allow even distribution of cells across the well floor. Before placing the sample plates in the Seahorse XF96 Analyzer, medium volume was adjusted to 175 μl in each well. 11 mM or 25 mM glucose for HepG2 cells or BMDMs respectively, Oligomycin at 2 μM, CCCP at 10 μM, and 2DG at […] each, diluted in DMEM, were injected sequentially into each well including control wells, containing only medium, following the standard Seahorse protocol. For acute injection of LPS, the first port of the drug cartridge was replaced with LPS at 200 ng/ml.

[4] = test system: ΔE1HK1 mice; assay: In vivo LPS i.p. injection with 1400W: splenic mRNA and serum ELISA of inflammatory cytokines; design: species or system mouse; conditions: LPS (15 mg/kg) i.p. + 1400W (10 mg/kg) i.p.
Method: (§2) RNA was isolated from cells or tissues using RNA-STAT60 (Teltest) followed by chloroform extraction and precipitation. Reverse transcription was carried out using qScript cDNA Synthesis Kit (Quanta Bio). The resulting cDNA was amplified quantitatively using PerfeCTa SYBR Green Mix (Quanta Bio) on a 7500 Fast Real-time PCR System (Applied Biosystems). The relative gene expression was determined using differences in Ct values between gene of interest and house-keeping control genes. Complete list of primers can be found in Key Reagents Table (Table 1).
LPS induced sepsis model in mice was approved by Northwestern University Institutional Animal Care and Use Committee. For short term LPS induced cytokine quantification, C57/B16 mice (aged 10-12 weeks) were treated i.p. with or without 1400W (10 mg/kg) for 2 hrs prior to i.p. treatment with ultrapure 05:B55 LPS from Invivogen (15 mg/kg) i.p. for 4 hours. Whole blood samples were harvested via cardiac puncture after mice were euthanized. Cytokine production in serum from whole blood was measured using the Mouse IL-1β (DY401), IL-6 (DY406), and TNFα (DY410) ELISAs from R&D. For survival studies, Crude 05:B55 LPS (Sigma) was administrated i.p. at a sub-lethal dose of 15 mg/kg and mice were monitored over 72 hrs, every 2-4 hrs for survival and signs of deterioration to determine humane endpoints (Shrum et al., 2014).

[5] = test system: PMs; assay: IL-1β ELISA from media of PMs from NC and HFD mice; type: cell-based, mouse; conditions: LPS (300 ng/ml) 6 hrs and ATP (2.5 mM) 30 min, 1400W
[6] = test system: GAPDH; assay: GAPDH IP and TMT switch S-nitrosylation western blot in BMDMs; type: cell-based, mouse; conditions: LPS (200 ng/ml) treated BMDMs ±1400W
Method: GAPDH immunoprecipitation of HepG2 and BMDM cells was performed and nitrosylated cysteines were replaced with covalent binding of TMT using Pierce S-Nitrosylation western blot kit according to manufactures protocol. Briefly, free cysteines were blocked with MMTS reagent, lysates were treated with iodoTMT/ascorbate to induce replacement of unstable S-NO with stable S-TMT moiety. Western blot was then run on the TMT-replaced lysates and probed with GAPDH (dilution 1:8,000) and anti-TMT (dilution 1:1000).

[7] = test system: BMDMs; assay: Inflammatory cytokine mRNA expression (quantitative RT-PCR) in BMDMs; type: cell-based, mouse; conditions: 4 hrs LPS (200 ng/ml) + 1400W (50 μM)
Method: BMDMs were isolated from ΔE1HK1 and WT mice as previously reported (Rodriguez et al., 2019). Briefly, bone marrow was isolated from the tibia and femur of 8-10-week-old mice by puncturing one end of the femur and tibia with a 27g needle and placing it in a 0.5 ml tube with a hole punched in the bottom. The 0.5 ml tube containing the bone was then placed in a 1.75 ml tube and centrifuged at 5,000×g for 3.5 minutes. Bone marrow was then collected into the 1.75 ml tube and resuspend in 1 ml of RBC lysis buffer (abcam) for 1 minute and then transferred to a 50 ml tube with 4 ml RBC lysis buffer and incubated for 4 minutes. Next, 35 ml of PBS was added and centrifuged at 300×g for 5 min and supernatant was then decanted and cell pellet was re-suspended in complete RPMI with 20 ng/ml mCSF (Preprotech). Cells were counted using a hemocytometer and plated in 10 cm tissue culture plates at a density of 3-million cells/plate. Cells were cultured with 20 ng/mL mCSF to induce differentiation into BMDMs. Media was changed every 2 days and BMDMs were harvested by scraping on day 6 and plated in 12 well plates at a density of 1-million cells/well for mRNA extraction experiments. BMDMs were stimulated in the same manner as peritoneal macrophages (LPS dose for BMDMs was 200 ng/ml).
as §2

Sequence of GAPDH (Mus musculus, UniProt P16858) (P16858 whole entry): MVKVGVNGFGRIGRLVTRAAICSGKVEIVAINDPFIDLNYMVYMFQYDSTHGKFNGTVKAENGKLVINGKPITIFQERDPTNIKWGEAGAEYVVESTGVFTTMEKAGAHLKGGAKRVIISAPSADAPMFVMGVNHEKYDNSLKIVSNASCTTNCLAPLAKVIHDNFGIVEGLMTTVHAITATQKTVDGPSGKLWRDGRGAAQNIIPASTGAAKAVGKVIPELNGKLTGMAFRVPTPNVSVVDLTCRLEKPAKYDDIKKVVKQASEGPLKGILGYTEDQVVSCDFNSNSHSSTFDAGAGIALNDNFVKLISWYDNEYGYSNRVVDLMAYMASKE

SMILES: CC(N)=NCc1cccc(CN)c1.Cl.Cl [1400W]
- GAPDH activity of ΔE1HK1 BMDMs [1]: restored to WT levels
- lower GAPDH activity in PMs of HFD mice [2]: rescued
- differences in ECAR between ΔE1HK1 and WT BMDMs [3]: eliminated the differences
- hyper-inflammatory response in ΔE1HK1 mice, serum ELISA IL-1β [4]: rescue
- hyper-inflammatory response in ΔE1HK1 mice, serum ELISA IL-6 [4]: rescue
- hyper-inflammatory response in ΔE1HK1 mice, serum ELISA TNFα [4]: rescue
- hyper-inflammatory response in ΔE1HK1 mice, splenic IL-1β mRNA [4]: rescue
- hyper-inflammatory response in ΔE1HK1 mice, splenic IL-6 mRNA [4]: rescue
- hyper-inflammatory response in ΔE1HK1 mice, splenic TNFα mRNA [4]: rescue
- elevation in IL-1β in HFD PMs (ELISA) [5]: reversed
- higher GAPDH nitrosylation in BMDMs from ΔE1HK1 mice [6]: reversible
- hyper-inflammatory response of ΔE1HK1 BMDMs, IL-1β mRNA [7]: reversal
- hyper-inflammatory response of ΔE1HK1 BMDMs, IL-6 mRNA [7]: reversal
- hyper-inflammatory response of ΔE1HK1 BMDMs, TNFα mRNA [7]: reversal
